Source: US8569229B2, “Compositions and methods which modulate G-protein signaling for the treatment of inflammatory disorders such as asthma and allergic conjunctivitis” (The Children's Hospital of Philadelphia, priority 2008, dated 2013)
Several values for one entry are separate records, joined by “and”; a condition that tells them apart may be missing. Equal entries are not always repeated. Entries after “also recorded” stand apart in the source; their conditions may differ. Numbered stars: 1 amine (or outer) side, 2 acyl side, 3 side chain; on linkers, the order of the positions; unused ones are H or OH. Bridge positions count the residues as written; N and C are the ends. Square brackets hold non-standard residues; d marks the D form. Peptide text beside a SMILES is read from it. I, II: the chains in the order shown. Actinocin(9to1) = Cc1c2oc3c(C)ccc(C(=O)[*:1])c3nc-2c(C(=O)[*:2])c(N)c1=O; NMeV = CN[C@H](C(=O)O)C(C)C; Sar = CNCC(=O)O

Columns and labels:
PDE4D5 mRNA = assay: Detection of PDE4D5 mRNA transcripts by RT-PCR in ASM cells; type: cell-based, human
Text: (§1) Detection of PDE4D5 mRNA transcripts: Total RNA was extracted from the cultured ASM cells using the TRIzol method (Invitrogen), and cDNAs were isolated by RT-PCR using the SuperScript First Strand Synthesis System kit from Invitrogen, with the following oligonucleotide primer sets (Integrated DNA Technologies): for PDE4D5, 5′-[…]-3′ (forward; SEQ ID NO: 2) and 5′-[…]-3′ (reverse; SEQ ID NO: 3); and for β-actin, 5′-[…]-3′ (forward; SEQ ID NO: 4) and 5′-[…]-3′ (reverse; SEQ ID NO: 5). The reaction volume was 20 μl and cycling conditions used were 35 cycles of 30 sec denaturation at 95° C., followed by 30 sec annealing at 60° C. and elongation at 72° C. for 30 sec. Ex-Tag (Takara Biotechnology) was used as DNA polymerase. […] Following protein extraction and the addition of gel-loading buffer, the extracts were loaded on a 10% SDS-PAGE gel for immunoblotting after transfer to a PVDF membrane. The membranes were then incubated overnight with monoclonal mouse anti-human primary antibodies directed against phospho-CREB and -ATF1, phospho-ERK1/2, or α-actin, and levels were detected by ECL after a 1-hr incubation with a 1:2,000 dilution of HRP-conjugated rabbit anti-mouse secondary antibody, followed by exposure to autoradiography film. The protein band intensities were quantified by densitometry. siRNA-mediated knockdown of PKA: ASM cells were seeded into 6-well plates and, at ˜40% confluency, the medium was replaced with the reduced serum-containing medium, Opti-MEM (Invitrogen). The cells were then transfected twice during a 24-hr interval with two pools of three siRNA duplexes, each pool targeted against the human PKAα or PKAγ catalytic subunits (Santa Cruz Biotechnology; sc-36240 and sc-36236, respectively), or with a non-targeted control (scrambled) siRNA duplex, using Oligofectamine (Invitrogen) as the transfection agent. The pools of siRNAs were applied to each well at a final concentration of 100 nM for each siRNA preparation. […] Transfection of ASM cells with adeno-βARK-ct: Adenovirus (adeno)-βARK-ct, an adenovirus vector encoding the βARK1 carboxyl-terminal domain which blocks Gβγ signaling (25,26), and adeno-β-gal, an adenovirus vector expressing lacZ as a negative control, were constructed using the AdenoX adenovirus construction kit (BD-Clontech). Recombinant plaques were isolated and propagated in HEK293 cells (Invitrogen), with viral purification using the cesium chloride gradient method, and viral titer detected by plaque assay. The ASM cells were transfected with either of the adenoviral vectors at a multiplicity of infection (MOI) of 100, and experiments were conducted at 24 hr following adenoviral tranfections. Pharmacodynamic studies of constrictor and relaxation responsiveness in rabbit ASM tissues: Following initial sedation and subsequent general anesthesia with intramuscular injections of xylazine (10 mg/kg) and ketamine (50 mg/kg), respectively, rabbits were sacrificed with an intravenously administered overdose of sodium pentobarbital (100 mg/kg). As described previously (16), the tracheae were excised via open thoracotomy, the loose connective tissue and epithelium were scraped and removed, and the tracheae were divided into 8 ring segments, each of 6-8 mm in length. […] After these incubations, the tissues were placed in organ baths containing modified Krebs-Ringer solution aerated with 5% CO2 in oxygen (pH of 7.35-7.40), and attached to force transducers to continuously monitor isometric tension. […] The constrictor and relaxation dose-response curves were analyzed with respect to each tissue's maximal isometric contractile force (Tmax) to ACh and maximal relaxation response (Rmax) to isoproterenol from the initial level of active cholinergic contraction. Statistical analyses: Results are expressed as mean±SE values. Comparisons between groups were made using the Student's t-test (two-tailed) or ANOVA with Tukey's post-test analysis, where appropriate.

CREB/ATF1 = assay: Immunoblot analysis of CREB/ATF1 phosphorylation in ASM cells; type: cell-based, human; conditions: PGE2 100 nM
Text: as §1

ERK1/2 = assay: Immunoblot analysis of ERK1/2 phosphorylation in ASM cells; type: cell-based, human; conditions: for effect on PGE2-induced phosphorylation of ERK1/2: 30 min
Text: as §1

human ASM cells [1] = assay: Assay of cAMP PDE activity in ASM cell lysates; type: cell-based; conditions: for effect of the agent alone on basal PDE activity: no cAMP-elevating agent; for PDE activity, fold above control: cells incubated 24 hr with the agent (PGE2 or forskolin 100 μM; salmeterol or isoproterenol 10 μM)
Experimental: Assay of cAMP PDE activity: Levels of cAMP PDE activity were assayed in ASM cell lysates using a colorimetric, non-radioactive enzymatic assay kit from Biomol, as per the manufacture's protocol. PDE activity was determined following exposure of ASM cells for 24 hr to either vehicle alone (control), PGE2 (100 μM), or forskolin (100 μM) in the absence and presence of pretreatment with rolipram (10 μM), cycloheximide (100 μM), actinomycin D (4 μM), or H89 (10 μM).
In each case, the measured levels of PDE activity were standardized to the protein content in the cell extracts.

human ASM cells [2] = assay: Assay of cAMP PDE activity in ASM cell lysates; type: cell-based; conditions: for effect of pretreatment on PGE2- and forskolin-induced increases in PDE activity: PGE2 or forskolin x 24 hr (100 μM in text, 100 nM in legends); for effect of pretreatment on salmeterol- and isoproterenol-induced increase in PDE activity: salmeterol or isoproterenol 10 μM x 24 hr

SMILES: Oc1ccc(-c2nc(-c3ccncc3)c(-c3ccc(F)cc3)[nH]2)cc1 [SB202190]
- effect of pretreatment on PGE2-induced upregulated PDE4D5 mRNA expression (PDE4D5 mRNA; PGE2 100 nM, 6 hr): neither the p38 MAPK nor JNK inhibitor (lanes 5 and 6, respectively) had an attenuating effect
- effect of pretreatment on β2AR agonist (isoproterenol)-induced upregulated PDE4D5 mRNA expression (PDE4D5 mRNA; isoproterenol 10 μM, 6 hr): unaffected; also recorded: no effect
- effect on PGE2-induced phosphorylation of CREB/ATF1 (CREB/ATF1; 30 min): neither PGE2-induced phosphorylation of ERK1/2 nor CREB/ATF was affected
- effect on PGE2-induced phosphorylation of ERK1/2 (ERK1/2; PGE2 100 nM): neither PGE2-induced phosphorylation of ERK1/2 nor CREB/ATF was affected

SMILES: O=C1Nc2ccc(I)cc2/C1=C/c1cc(Br)c(O)c(Br)c1 [GW5074]
- effect on PGE2-induced phosphorylation of ERK1/2 (ERK1/2; PGE2 100 nM): completely ablated; also recorded: prevents
- effect on isoproterenol (β2AR agonist)-induced phosphorylation of ERK1/2 (ERK1/2; isoproterenol 10 μM, 20 min): completely abrogated; also recorded: prevents

SMILES: Cc1c2oc3c(C)ccc(C(=O)N[C@@H]4C(=O)N[C@H](C(C)C)C(=O)N5CCC[C@H]5C(=O)N(C)CC(=O)N(C)[C@@H](C(C)C)C(=O)O[C@@H]4C)c3nc-2c(C(=O)N[C@@H]2C(=O)N[C@H](C(C)C)C(=O)N3CCC[C@H]3C(=O)N(C)CC(=O)N(C)[C@@H](C(C)C)C(=O)O[C@@H]2C)c(N)c1=O [actinomycin D] (I: T[dV]P[Sar][NMeV] / II: T[dV]P[Sar][NMeV]; ester I:1-I:C, II:1-II:C; linker I:N-II:N via Actinocin(9to1))
- effect of the agent alone on basal PDE activity (human ASM cells [1]): neither actinomycin D nor cycloheximide alone significantly affected
- effect of pretreatment on PGE2- and forskolin-induced increases in PDE activity (human ASM cells [2]): completely ablated
- effect of pretreatment on salmeterol- and isoproterenol-induced increase in PDE activity (human ASM cells [2]): completely ablated

SMILES: CC(C)NCC(O)c1ccc(O)c(O)c1 (stereo not shown) [isoproterenol]
- cAMP PDE (PDE4) activity relative to vehicle-treated control cells (human ASM cells [1]; cells exposed 24 hr to the agent): significantly increased
- PDE activity, fold above control (human ASM cells [1]): ~2 fold
- time of peak PDE4D5 mRNA induction (PDE4D5 mRNA; PGE2 100 nM, salmeterol or isoproterenol 10 μM): 6 h
- peak PDE4D5 mRNA expression, fold above unstimulated cells (PDE4D5 mRNA; densitometric analysis, 3 experiments, PGE2 100 nM, salmeterol or isoproterenol 10 μM): 5.7 fold
- phosphorylation of CREB and ATF1 in cells treated with the agent (CREB/ATF1; isoproterenol 10 μM): transiently increased phosphorylation
- time of peak CREB/ATF1 phosphorylation (CREB/ATF1; isoproterenol 10 μM): 30 min
- time of peak ERK1/2 phosphorylation (ERK1/2; PGE2 100 nM, isoproterenol or salmeterol 10 μM): 20 min
- ERK1/2 phosphorylation in cells treated with the agent (ERK1/2; PGE2 or forskolin 100 nM, isoproterenol or salmeterol 10 μM): increased phosphorylation of ERK1/2; also recorded: enhanced ERK1/2 phosphorylation
- increase in ERK1/2 phosphorylation, fold above control (vehicle-treated) cells (ERK1/2; densitometric ratios, mean±SE, PGE2 30 min, isoproterenol 20 min): 2.30±0.18 fold and 2.3 fold

SMILES: C=C[C@@]1(C)CC(=O)[C@]2(O)[C@@]3(C)[C@@H](O)CCC(C)(C)[C@@H]3[C@H](O)[C@H](OC(C)=O)[C@@]2(C)O1 [forskolin]
- PDE activity, fold above control (human ASM cells [1]): 4.01 fold

SMILES: C[C@@H]1C[C@@H]([C@H](O)CC2CC(=O)NC(=O)C2)C(=O)[C@@H](C)C1 [cycloheximide]
- effect of the agent alone on basal PDE activity (human ASM cells [1]): neither actinomycin D nor cycloheximide alone significantly affected
- effect of pretreatment on PGE2- and forskolin-induced increases in PDE activity (human ASM cells [2]): completely ablated
- effect of pretreatment on salmeterol- and isoproterenol-induced increase in PDE activity (human ASM cells [2]): completely ablated
